Earlier results on one compound are cited in US20030229057A1, “Continuous sulfatase inhibiting progestogen hormone replacement therapy” (priority 2002, published 2003).

Where only a bound is given, the exact number is not on record here.

For the series the following is noted: humans.

For `C#C[C@]1(OC(C)=O)CC[C@H]2[C@@H]3CCC4=CC(=NO)CC[C@@H]4[C@H]3CC[C@@]21CC` (mixture of isomers) [norgestimate], the “norgestimate being converted to norelgestromin in vivo” value is listed as at least 80%.
